Laboratory results taken from ChEMBL document CHEMBL2401671, “Nucleic acid changes during photodynamic inactivation of bacteria by cationic porphyrins” (Bioorg Med Chem, 2013).
Active and inactive are the calls of the source. The rule behind the calls is not given here.

What was measured:
Staphylococcus warneri [1] = test: Photodynamic inactivation of Staphylococcus warneri assessed as reduction in cell survival at 0.5 uM preincubated for 10 mins followed by visible light irradiation for 40 mins; assay type: functional
Escherichia coli [2] = test: Photodynamic inactivation of Escherichia coli ATCC 25922 assessed as reduction in cell survival at 5 uM preincubated for 10 mins followed by visible light irradiation for 270 mins; assay type: functional
Escherichia coli [3] = test: Drug uptake in Escherichia coli ATCC 25922 at 5 uM incubated for 10 mins followed by compound washout by spectrofluorimetric analysis relative to control; assay type: ADME, organism-based; settings: in vivo
Escherichia coli [4] = test: Photodynamic inactivation of Escherichia coli ATCC 25922 assessed as reduction in cell survival at 5 uM preincubated for 10 mins followed by visible light irradiation for 90 mins; assay type: functional
Staphylococcus warneri [5] = test: Photodynamic inactivation of Staphylococcus warneri assessed as reduction in intracellular double stranded DNA concentration at 0.5 uM preincubated for 10 mins followed by visible light irradiation for 30 mins by fluorimetric analysis relative to control; assay type: functional; design: scale not given: the % may be the effect or the level left
Staphylococcus warneri [6] = test: Drug uptake in Staphylococcus warneri at 0.5 uM after 10 mins by spectrofluorimetric analysis; assay type: ADME, organism-based; settings: in vivo
Escherichia coli [7] = test: Photodynamic inactivation of Escherichia coli ATCC 25922 assessed as reduction in intracellular double stranded DNA concentration at 5 uM preincubated for 10 mins followed by visible light irradiation for 270 mins by fluorimetric analysis relative to control; assay type: functional; design: scale not given: the % may be the effect or the level left
Escherichia coli [8] = test: Photodynamic inactivation of Escherichia coli ATCC 25922 assessed as reduction in cell survival at 5 uM preincubated for 10 mins followed by visible light irradiation for 60 mins; assay type: functional
Staphylococcus warneri [9] = test: Photodynamic inactivation of Staphylococcus warneri assessed as reduction in intracellular double stranded DNA concentration at 0.5 uM preincubated for 10 mins followed by visible light irradiation for 10 mins by fluorimetric analysis relative to control; assay type: functional; design: scale not given: the % may be the effect or the level left
Staphylococcus warneri [10] = test: Photodynamic inactivation of Staphylococcus warneri assessed as reduction in intracellular double stranded DNA concentration at 0.5 uM preincubated for 10 mins followed by visible light irradiation for 20 mins by fluorimetric analysis relative to control; assay type: functional; design: scale not given: the % may be the effect or the level left
Staphylococcus warneri [11] = test: Drug uptake in Staphylococcus warneri at 0.5 uM incubated for 10 mins followed by compound washout by spectrofluorimetric analysis relative to control; assay type: ADME, organism-based; settings: in vivo
Escherichia coli [12] = test: Photodynamic inactivation of Escherichia coli ATCC 25922 assessed as reduction in intracellular double stranded DNA concentration at 5 uM preincubated for 10 mins followed by visible light irradiation for 15 mins by fluorimetric analysis relative to control; assay type: functional; design: scale not given: the % may be the effect or the level left
Staphylococcus warneri [13] = test: Photodynamic inactivation of Staphylococcus warneri assessed as reduction in cell survival at 0.5 uM preincubated for 10 mins followed by visible light irradiation at 5 J cm'-2 light dose; assay type: functional
Escherichia coli [14] = test: Photodynamic inactivation of Escherichia coli ATCC 25922 assessed as reduction in cell survival at 5 uM preincubated for 10 mins followed by visible light irradiation for 180 mins; assay type: functional
Staphylococcus warneri [15] = test: Photodynamic inactivation of Staphylococcus warneri assessed as reduction in cell survival at 0.5 uM preincubated for 10 mins followed by visible light irradiation for 15 mins; assay type: functional
Staphylococcus warneri [16] = test: Photodynamic inactivation of Staphylococcus warneri assessed as reduction in intracellular double stranded DNA concentration at 0.5 uM preincubated for 10 mins followed by visible light irradiation for 15 mins by fluorimetric analysis relative to control; assay type: functional; design: scale not given: the % may be the effect or the level left
Staphylococcus warneri [17] = test: Photodynamic inactivation of Staphylococcus warneri assessed as reduction in cell survival at 0.5 uM preincubated for 10 mins followed by visible light irradiation for 10 mins; assay type: functional
Escherichia coli [18] = test: Photodynamic inactivation of Escherichia coli ATCC 25922 assessed as reduction in intracellular double stranded DNA concentration at 5 uM preincubated for 10 mins followed by visible light irradiation for 180 mins by fluorimetric analysis relative to control; assay type: functional; design: scale not given: the % may be the effect or the level left
Staphylococcus warneri [19] = test: Photodynamic inactivation of Staphylococcus warneri assessed as reduction in intracellular double stranded DNA concentration at 0.5 uM preincubated for 10 mins followed by visible light irradiation for 40 mins by fluorimetric analysis relative to control; assay type: functional; design: scale not given: the % may be the effect or the level left
Escherichia coli [20] = test: Photodynamic inactivation of Escherichia coli ATCC 25922 assessed as reduction in intracellular double stranded DNA concentration at 5 uM preincubated for 10 mins followed by visible light irradiation for 30 mins by fluorimetric analysis relative to control; assay type: functional; design: scale not given: the % may be the effect or the level left
Escherichia coli [21] = test: Drug uptake in Escherichia coli ATCC 25922 at 5 uM after 10 mins by spectrofluorimetric analysis; assay type: ADME, organism-based; settings: in vivo
Escherichia coli [22] = test: Photodynamic inactivation of Escherichia coli ATCC 25922 assessed as reduction in cell survival at 5 uM preincubated for 10 mins followed by visible light irradiation for 15 mins; assay type: functional
Staphylococcus warneri [23] = test: Photodynamic inactivation of Staphylococcus warneri assessed as reduction in cell survival at 0.5 uM preincubated for 10 mins followed by visible light irradiation for 30 mins; assay type: functional
Staphylococcus warneri [24] = test: Photodynamic inactivation of Staphylococcus warneri assessed as reduction in cell survival at 0.5 uM preincubated for 10 mins followed by visible light irradiation for 5 mins; assay type: functional
Escherichia coli [25] = test: Photodynamic inactivation of Escherichia coli ATCC 25922 assessed as reduction in cell survival at 5 uM preincubated for 10 mins followed by visible light irradiation at 8 J cm'-2 light dose; assay type: functional
Escherichia coli [26] = test: Photodynamic inactivation of Escherichia coli ATCC 25922 assessed as reduction in intracellular double stranded DNA concentration at 5 uM preincubated for 10 mins followed by visible light irradiation for 60 mins by fluorimetric analysis relative to control; assay type: functional; design: scale not given: the % may be the effect or the level left
Escherichia coli [27] = test: Photodynamic inactivation of Escherichia coli ATCC 25922 assessed as reduction in cell survival at 5 uM preincubated for 10 mins followed by visible light irradiation for 30 mins; assay type: functional
Staphylococcus warneri [28] = test: Photodynamic inactivation of Staphylococcus warneri assessed as reduction in cell survival at 0.5 uM preincubated for 10 mins followed by visible light irradiation for 20 mins; assay type: functional
Escherichia coli [29] = test: Photodynamic inactivation of Escherichia coli ATCC 25922 assessed as reduction in intracellular double stranded DNA concentration at 5 uM preincubated for 10 mins followed by visible light irradiation for 90 mins by fluorimetric analysis relative to control; assay type: functional; design: scale not given: the % may be the effect or the level left
Staphylococcus warneri [30] = test: Photodynamic inactivation of Staphylococcus warneri assessed as reduction in intracellular double stranded DNA concentration at 0.5 uM preincubated for 10 mins followed by visible light irradiation for 5 mins by fluorimetric analysis relative to control; assay type: functional; design: scale not given: the % may be the effect or the level left
Escherichia coli [31] = test: Photodynamic inactivation of Escherichia coli ATCC 25922 assessed as reduction in nucleic acid level at 5 uM preincubated for 10 mins followed by visible light irradiation for 60 mins by agarose gel electrophoresis; assay type: functional, organism-based
Escherichia coli [32] = test: Photodynamic inactivation of Escherichia coli ATCC 25922 assessed as reduction in rRNA level at 5 uM preincubated for 10 mins followed by visible light irradiation for 15 mins by agarose gel electrophoresis; assay type: functional, organism-based
Escherichia coli [33] = test: Photodynamic inactivation of Escherichia coli ATCC 25922 assessed as reduction in degraded DNA and mRNA level at 5 uM preincubated for 10 mins followed by visible light irradiation for 30 mins by agarose gel electrophoresis; assay type: functional, organism-based
Staphylococcus warneri [34] = test: Photodynamic inactivation of Staphylococcus warneri assessed as reduction in nucleic acid level at 0.5 uM preincubated for 10 mins followed by visible light irradiation for 20 to 40 mins by agarose gel electrophoresis; assay type: functional, organism-based
Escherichia coli [35] = test: Photodynamic inactivation of Escherichia coli ATCC 25922 assessed as reduction in intracellular double stranded DNA concentration at 5 uM preincubated for 10 mins followed by visible light irradiation by fluorimetric analysis; assay type: functional, organism-based; settings: TDE = time-dependent effect
Staphylococcus warneri [36] = test: Photodynamic inactivation of Staphylococcus warneri assessed as reduction in intracellular double stranded DNA concentration at 0.5 uM preincubated for 10 mins followed by visible light irradiation by fluorimetric analysis; assay type: functional, organism-based; settings: TDE = time-dependent effect
Staphylococcus warneri [37] = test: Photodynamic inactivation of Staphylococcus warneri assessed as reduction in genomic DNA level at 0.5 uM preincubated for 10 mins followed by visible light irradiation for 5 to 15 mins by agarose gel electrophoresis; assay type: functional, organism-based
Escherichia coli [38] = test: Photodynamic inactivation of Escherichia coli ATCC 25922 assessed as reduction in genomic DNA level at 5 uM preincubated for 10 mins followed by visible light irradiation for 15 mins by agarose gel electrophoresis; assay type: functional, organism-based
Staphylococcus warneri [39] = test: Photodynamic inactivation of Staphylococcus warneri assessed as reduction in DNA level at 0.5 uM preincubated for 10 mins followed by visible light irradiation for 40 mins by agarose gel electrophoresis; assay type: functional, organism-based
Escherichia coli [40] = test: Photodynamic inactivation of Escherichia coli ATCC 25922 assessed as reduction in 16S rRNA level at 5 uM preincubated for 10 mins followed by visible light irradiation for 30 mins by agarose gel electrophoresis; assay type: functional, organism-based
Escherichia coli [41] = test: Photodynamic inactivation of Escherichia coli ATCC 25922 assessed as reduction in 23S rRNA level at 5 uM preincubated for 10 mins followed by visible light irradiation for 30 mins by agarose gel electrophoresis; assay type: functional, organism-based
Staphylococcus warneri [42] = test: Photodynamic inactivation of Staphylococcus warneri assessed as reduction in DNA level at 0.5 uM preincubated for 10 mins followed by visible light irradiation for 5 to 30 mins by agarose gel electrophoresis; assay type: functional, organism-based

SMILES	log10CFU/ml (Staphylococcus warneri [1])	log10CFU/ml (Escherichia coli [2])	Drug uptake (Escherichia coli [3])	log10CFU/ml (Escherichia coli [4])	Activity (Staphylococcus warneri [5])	Drug uptake (Staphylococcus warneri [6])	Activity (Escherichia coli [7])	log10CFU/ml (Escherichia coli [8])	Activity (Staphylococcus warneri [9])	Activity (Staphylococcus warneri [10])	Drug uptake (Staphylococcus warneri [11])	Activity (Escherichia coli [12])	Activity (Staphylococcus warneri [13])	log10CFU/ml (Escherichia coli [14])	log10CFU/ml (Staphylococcus warneri [15])	Activity (Staphylococcus warneri [16])	log10CFU/ml (Staphylococcus warneri [17])	Activity (Escherichia coli [18])	Activity (Staphylococcus warneri [19])	Activity (Escherichia coli [20])	further results
C[n+]1ccc(-c2c3nc(c(-c4cc[n+](C)cc4)c4ccc([nH]4)c(-c4cc[n+](C)cc4)c4nc(c(-c5cc[n+](C)cc5)c5ccc2[nH]5)C=C4)C=C3)cc1.[I-].[I-].[I-].[I-]	5.6	6.2	35%	5.7	45.3%	Active	99.8%	4.4	37.9%	38.3%	47%	14.3%	99.9%	6.1	2.8	38.1%	1.8	99.8%	58.2%	42.8%	Drug uptake (Escherichia coli [21]): Active; log10CFU/ml (Escherichia coli [22]): 0.2; log10CFU/ml (Staphylococcus warneri [23]): 4.7; log10CFU/ml (Staphylococcus warneri [24]): 0.4; Activity (Escherichia coli [25]): 99.9%; Activity (Escherichia coli [26]): 81.2%; log10CFU/ml (Escherichia coli [27]): 2.9; log10CFU/ml (Staphylococcus warneri [28]): 3.3; Activity (Escherichia coli [29]): 99.8%; Activity (Staphylococcus warneri [30]): 19.6%
C[n+]1ccc(-c2c3nc(c(-c4cc[n+](C)cc4)c4ccc([nH]4)c(-c4c(F)c(F)c(F)c(F)c4F)c4nc(c(-c5cc[n+](C)cc5)c5ccc2[nH]5)C=C4)C=C3)cc1.[I-].[I-].[I-]	7.5	7.7	47%	5.8	91.9%	Active	99.6%	5.4	69.9%	82.8%	74%	23.1%	99.9%	7.2	5.6	78%	5.3	99.1%	92.2%	55.1%	Activity (Escherichia coli [31]): Active; Activity (Escherichia coli [32]): Active; Activity (Escherichia coli [33]): Active; Activity (Staphylococcus warneri [34]): Active; Activity (Escherichia coli [35]): tde; Activity (Staphylococcus warneri [36]): tde; Drug uptake (Escherichia coli [21]): Active; log10CFU/ml (Escherichia coli [22]): 3.1; log10CFU/ml (Staphylococcus warneri [23]): 7.2; log10CFU/ml (Staphylococcus warneri [24]): 4.8; Activity (Escherichia coli [25]): 99.9%; Activity (Escherichia coli [26]): 98.4%; log10CFU/ml (Escherichia coli [27]): 5.2; Activity (Staphylococcus warneri [37]): Active; log10CFU/ml (Staphylococcus warneri [28]): 6.9; Activity (Escherichia coli [29]): 98.3%; Activity (Staphylococcus warneri [30]): 66.2%; Activity (Escherichia coli [38]): Active
C[n+]1ccc(-c2c3nc(c(-c4cc[n+](C)cc4)c4ccc([nH]4)c(-c4cc[n+](C)cc4)c4ccc([nH]4)c(-c4cc[n+](C)cc4)c4nc2C=C4)C=C3)cc1	–	–	–	–	–	–	–	–	–	–	–	–	–	–	–	–	–	–	–	–	Activity (Staphylococcus warneri [39]): inactive; Activity (Escherichia coli [31]): Active; Activity (Escherichia coli [40]): Active; Activity (Escherichia coli [32]): inactive; Activity (Escherichia coli [41]): Active; Activity (Escherichia coli [35]): tde; Activity (Staphylococcus warneri [42]): Active; Activity (Escherichia coli [38]): inactive
